According to patent US8642540B2 (Zealand Pharma A/S, priority 2008, dated 2014):
Like-named read-outs stand apart in the source and are kept apart here. Non-standard residues stand in square brackets, D forms with d. Residues, ends and D or L forms follow the SMILES beside them.

Assays:
[1] = tested on: primary rat adipocyte cultures; format: cell-based; settings: for Stimulation of lipolysis EC50 / lipolysis potency relative to OXM: primary rat adipocyte cultures; for Stimulation of lipolysis EC50: 60 min at 37° C., glycerol formed
Procedure: Adipocytes were isolated from epididymal fat dissected from normal young adult Sprague-Dawley rats. The fat lumps were minced, incubated and shaken (220 rpm) with collagenase (1 mg/ml) in Krebs-Ringer buffer containing 4% BSA (KRB-BSA) for 60 minutes at 37° C. The suspension was filtered through a nylon filter (160 μm pore size) and the filtrate centrifuged at 200×g for 3 min. The subjacent medium beneath the upper floating layer of adipocytes was removed with a Pasteur-pipette. The adipocytes were washed 3 times in KRB-BSA buffer by re-suspension and centrifugation. The adipocytes were re-suspended in KRB-BSA, mixed, incubated in and shaken with test compounds in 96-deep well plates (50,000 cells/well) in a total volume of 1 ml at 37° C. for 60 min. The plates were placed on ice for at least 10 min after incubation followed by centrifugation at 200×g for 3 min. 300 μl of the buffer beneath the adipocyte layer were collected in a 96-deep well plate. This process was repeated two more times and the 3 extracts collected from each culture pooled together.

[2] = target: T1, human GLP-1-R (Homo sapiens, UniProt P43220); test: GLP-1 receptor efficacy assay (cAMP in HEK293 cells); format: cell-based; settings: HEK293 cells expressing human GLP-1-R, 15 min at 37° C.
T1 construct: expressed in transfected cells
Procedure: (§1) The 5′-end primers additionally encoded a near Kozak consensus sequence to ensure efficient translation.
(§2) 48 hr after transfection cells were seeded for limited dilution cloning and selected with 1 mg/ml G418 in the culture medium.
(§3) On the day of analysis, growth medium was removed and the cells washed once with 200 μl Tyrode buffer. Cells were incubated in 100 μl Tyrode buffer containing increasing concentrations of test peptides, 100 μM IBMX, and 6 mM glucose for 15 min at 37° C. The reaction was stopped by addition of 25 μl 0.5 M HCl and incubated on ice for 60 min. The cAMP content was estimated using the FlashPlate® cAMP kit from Perkin-Elmer.

[3] = tested on: diet induced obese mice; test: 28 day treatment of diet induced obese (DIO) mice, body weight gain; format: in vivo, mouse; settings: C57Bl/6 male mice on high fat diet, 500 nmol/kg b.i.d. s.c., 28 days
Procedure: Effects of 28 Day Treatment of Diet Induced Obese (DIO) Mice with ZP2495 (SEQ ID NO: 5) on Body Weight Gain Four weeks before drug treatments, C57Bl/6 male mice (7 weeks) (N=10-12 animals in each group) were put on high fat diet (HFD) and their day-night cycle reversed with lights On/Off at 2000/0800 hour. Experimental animals were conditioned to treatment by daily injections (s.c.) of 0.1 ml vehicle and acclimatized to handling by weighing them twice a week one week before start of drug administrations. The day before start of experiment, mice were stratified into groups with similar body weight (BW) and the next day groups of stratified mice were treated (b.i.d.; s.c.) with ZP2495 (SEQ ID NO: 5) (500 nmol/kg) or vehicle. A non-obese control group maintained on regular chow was treated with vehicle in the same treatment regime as the DIO groups. Body weights were recorded daily and used to administer the body weight-corrected doses of peptide throughout the study. Animals were fasted overnight before sacrifice. […] Body weight gains throughout the treatment period were calculated for each animal by subtracting its weight at the initiation of treatment.
The effects of treatment on body weight gain were assessed by 2-way ANOVA with repeated measures and Bonferoni post-hoc analyses were using with GraphPad Prism version 4. […]

[4] = target: T2, human Glucagon-R (Homo sapiens, UniProt P47871); test: Glucagon receptor efficacy assay (cAMP in HEK293 cells); format: cell-based; settings: HEK293 cells expressing human Glucagon-R, 15 min at 37° C., read-out: GLUR EC50
T2 construct: expressed in transfected cells
Procedure: as §1, §2, §3

T2 sequence (P47871 26-477): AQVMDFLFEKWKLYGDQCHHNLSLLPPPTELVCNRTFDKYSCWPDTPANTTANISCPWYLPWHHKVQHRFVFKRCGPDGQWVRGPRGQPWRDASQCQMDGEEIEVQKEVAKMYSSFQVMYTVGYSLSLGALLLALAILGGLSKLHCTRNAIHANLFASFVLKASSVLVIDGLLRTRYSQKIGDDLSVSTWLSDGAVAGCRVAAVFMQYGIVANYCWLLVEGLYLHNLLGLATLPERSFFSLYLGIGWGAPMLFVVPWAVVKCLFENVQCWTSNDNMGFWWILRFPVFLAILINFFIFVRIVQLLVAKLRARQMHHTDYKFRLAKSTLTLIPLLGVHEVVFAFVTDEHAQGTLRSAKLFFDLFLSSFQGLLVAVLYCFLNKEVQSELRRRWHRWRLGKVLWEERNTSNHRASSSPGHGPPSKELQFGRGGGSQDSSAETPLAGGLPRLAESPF
T1 sequence (P43220 24-463): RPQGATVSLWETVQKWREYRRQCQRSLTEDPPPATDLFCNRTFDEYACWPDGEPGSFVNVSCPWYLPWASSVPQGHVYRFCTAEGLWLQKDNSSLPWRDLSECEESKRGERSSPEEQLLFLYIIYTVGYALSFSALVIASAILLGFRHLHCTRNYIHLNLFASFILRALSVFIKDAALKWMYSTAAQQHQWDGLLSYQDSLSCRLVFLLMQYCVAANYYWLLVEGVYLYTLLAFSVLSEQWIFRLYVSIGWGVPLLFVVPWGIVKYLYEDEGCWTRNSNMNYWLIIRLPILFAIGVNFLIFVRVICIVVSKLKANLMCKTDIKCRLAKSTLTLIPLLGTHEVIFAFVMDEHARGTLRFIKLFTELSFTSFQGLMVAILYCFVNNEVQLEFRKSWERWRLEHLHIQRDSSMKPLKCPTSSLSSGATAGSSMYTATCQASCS

EC50 [2] [nM]	EC50 [1] [nM]	EC50 [4] [nM]	Molecule	Stimulation of lipolysis EC50 [1]	Stimulation of lipolysis EC50 ([1]; listed as exendin-4)	lipolysis potency relative to OXM [1]	body weight gain versus vehicle group ([3]; 2-way ANOVA, p<0.05)	body weight gain ([3]; compared with chow-fed controls)
0.8	15		H-HSQGTFTSDYSKYLDRARADDFVAWLERA-NH2 [ZP2650]					
0.8	326	0.5	CC(C)C[C@H](NC(=O)[C@H](Cc1c[nH]c2ccccc12)NC(=O)[C@H](C)NC(=O)[C@@H](NC(=O)[C@H](Cc1ccccc1)NC(=O)[C@H](CC(=O)O)NC(=O)[C@H](CC(=O)O)NC(=O)[C@H](C)NC(=O)[C@H](CCCNC(=N)N)NC(=O)[C@H](C)NC(=O)[C@H](CCCNC(=N)N)NC(=O)[C@H](CC(=O)O)NC(=O)[C@H](CC(C)C)NC(=O)[C@H](Cc1ccc(O)cc1)NC(=O)[C@H](CCCCN)NC(=O)[C@H](CO)NC(=O)[C@H](Cc1ccc(O)cc1)NC(=O)[C@H](CC(=O)O)NC(=O)[C@H](CO)NC(=O)[C@@H](NC(=O)[C@H](Cc1ccccc1)NC(=O)[C@@H](NC(=O)CNC(=O)[C@H](CCC(N)=O)NC(=O)[C@@H](CO)NC(=O)[C@@H](N)Cc1c[nH]cn1)[C@@H](C)O)[C@@H](C)O)C(C)C)C(=O)N[C@@H](CCCCN)C(=O)N[C@@H](CO)C(=O)N[C@H](C(N)=O)[C@@H](C)O [ZP2654] (H-H[dS]QGTFTSDYSKYLDRARADDFVAWLKST-NH2)					
0.1	26	0.2	H-HSQGTFTSDYSKYLDRARAHDFVAWLKST-NH2 [ZP2648]					
0.1	57		H-HSQGTFTSDYSKYLDRARADDFVEWLKST-NH2 [ZP2649]					

More lines, now with the values behind:

Molecule	EC50 [2] [nM]	EC50 [1] [nM]	EC50 [4] [nM]	Stimulation of lipolysis EC50 [1]	Stimulation of lipolysis EC50 ([1]; listed as exendin-4)	lipolysis potency relative to OXM [1]	body weight gain versus vehicle group ([3]; 2-way ANOVA, p<0.05)	body weight gain ([3]; compared with chow-fed controls)
Exendin-4 [reference compound]				No effect	no effect			
H-HSQGTFTSDYSKYLDRARADDFVAWLKST-NH2 [ZP2495]		137				equipotent with OXM	statistically significantly less than observed in the vehicle group	decreased body weight gain to a level similar to that observed with chow feeding
H-HSQGTFTSDYSKYLDRARADDFVAWLKSA-NH2 [ZP2634]	0.2	127	0.5			equipotent with OXM		
H-HSQGTFTSDYSKYLDRARAEDFVAWLKST-NH2 [ZP2637]	0.1	42	0.2					
H-HSQGTFTSDYSKYLDRARADDFVAWLKEA-NH2 [ZP2635]	0.2	93	0.2					
